Values quoted from earlier work as cited in patent publication US5840756A, “Pharmaceutical composition of L-DOPA ester” (priority 1996, dated 1998).

Key:
[1] = oral administration; L-DOPA ethyl ester vs L-DOPA
[2] = not given; remark: listed apart in the source
[3] = oral or parenteral route

| Water solubility | Treated patients in whom disabling motor fluctuations appear ([2]; within five years after initiation, in combination with carbidopa or benserazide) | Function as a prodrug of levodopa [3] | Compound | Time courses of action [1] | Relief from the `off` state ([2]; direct instillation of a slurry through a duodenal tube) | Effect of oral dosing with a dilute aqueous solution ([2]; oral, dilute aqueous solution) |
| --- | --- | --- | --- | --- | --- | --- |
| low water solubility | about 50% | – | N[C@@H](Cc1ccc(O)c(O)c1)C(=O)O [levodopa] | same time courses of action | rapid relief | appeared to be effective |
| – | – | function as a prodrug of levodopa | CCOC(=O)[C@@H](N)Cc1ccc(O)c(O)c1 [L-DOPA ethyl ester] | same time courses of action | – | – |
